Experimental data as given in patent US9556223B2, “Antimicrobial compounds” (priority 2008, dated 2017).
In brackets after ≈: the same amount, converted by molar mass.

Tests used:
[1] = test system: S. pyogenes; type: cell-based
[2] = test system: Staphylococcus aureus, strain ATCC 25923; type: cell-based
Procedure: (§1) MIC determinations on Staphylococcus aureus, strain ATCC 25923, Methicillin resistant Staphylococcus aureus (MRSA) strain ATCC 33591 and Methicillin resistant Staphylococcus epidermidis (MRSE) strain ATCC 27626 were performed by Toslab AS using standard methods. Amsterdam, D. (1996) Susceptibility testing of antimicrobials in liquid media, in Antibiotics in Laboratory Medicine. 4th ed (Lorian, V., Ed.) pp 75-78, Williams and Wilkins Co; Baltimore.

[3] = test system: C. albicans; type: cell-based
[4] = test system: P. aeruginosa; type: cell-based
[5] = test system: E. coli; type: cell-based
[6] = test system: Methicillin resistant Staphylococcus aureus (MRSA) strain ATCC 33591; type: cell-based
Procedure: as §1

[7] = test system: Staphylococcus aureus; experiment: Susceptibility testing under planktonic growth condition (MIC); details: E-test (rifampicin: broth microdilution)
[8] = test system: Staphylococcus epidermidis; experiment: as above; details: E-test (rifampicin: broth microdilution)
[9] = test system: Staphylococcus haemolyticus; experiment: as above; details: E-test (rifampicin: broth microdilution)
[10] = test system: S. haemolyticus TUH 51-07 biofilm; experiment: Biofilm imaging, LIVE/DEAD staining, confocal laser scanning microscopy; type: cell-based
Procedure: One ml aliquots of MHIIB-diluted overnight culture was used to grow S. haemolyticus TUH 51-07 biofilm on plastic coverslides (Thermanox, cellculture treated on one side, NUNC) in 24-well dishes (Falcon 3047, Becton Dickinson, N.J., USA) for 24 h. The coverslides were then washed carefully with PBS, moved to a new plate and treated for 24 h with tetracycline 50 mg/L and 500 mg/L, vancomycin 50 mg/L and 500 mg/L, or Compound […] and 500 mg/L. The coverslides were washed again with […] and stained with a LIVE/DEAD kit (Invitrogen Molecular Probes, Eugene, Oreg., USA) following the manufacturer's instructions. This stain contains SYTO 9 (green fluorescent) and propidium iodide (PI; red fluorescent), both binding to DNA. When used alone, the SYTO 9 generally stains all bacteria in a population; both those with intact and those with damaged membranes. In contrast, PI penetrates only bacteria with damaged membranes, causing a reduction in the SYTO 9 stain green fluorescence when both dyes are present. We examined treated and untreated biofilms with a Leica TCS SP5 (Leica Microsystems Cms Gmbh, Mannheim, Germany) confocal laser scanning microscope (CLSM). Images were obtained using a 63×1.2 NA HCX PL APO water immersion lens. For detection of SYTO9 (green channel), we used the 488 nm line of the argon laser and a detection bandwidth of 495-515 nm. […]

[11] = strain SE RP62A ATCC 35984, blood culture
[12] = strain SE TUH 08-16, blood culture
[13] = strain SH TUH 51-07, blood culture
[14] = strain TUH 51-03, blood culture

| Compound | MIC S. pyogenes [1] | MIC S. aureus [2] | MIC C. albicans [3] | MIC P. aeruginosa [4] | MIC E. coli [5] | MIC MRSA [6] | MIC antibiotics ([7]; strain SA PIA 9, joint fluid) | MIC antibiotics ([7]; strain SA PIA90, joint fluid) | MIC antibiotics [8, 11] | MIC antibiotics [8, 12] | MIC antibiotics [9, 13] | MIC antibiotics [9, 14] | LIVE/DEAD staining of biofilm cells (green live, red dead) ([10]; 24 h treatment at 500 mg/L) | LIVE/DEAD staining of biofilm cells (green live, red dead) ([10]; 24 h treatment at 50 mg/L) |
| --- | --- | --- | --- | --- | --- | --- | --- | --- | --- | --- | --- | --- | --- | --- |
| CCCCCCCCCCCCCCCCNC(=O)[C@H](CCCNC(=N)N)NC(=O)[C@H](Cc1c(C(C)(C)C)[nH]c2c(C(C)(C)C)cc(C(C)(C)C)cc12)NC(=O)[C@@H](N)CCCNC(=N)N [Compound 5] | 6 µg/mL (≈ 6.61 µM) | 5 µg/mL (≈ 5.5 µM) | >100 µg/mL | >100 µg/mL | >100 µg/mL |  |  |  |  |  |  |  |  |  |
| CC(C)(C)c1cc(C(C)(C)C)c2[nH]c(C(C)(C)C)c(C[C@H](NC(=O)[C@@H](N)CCCNC(=N)N)C(=O)N[C@@H](CCCNC(=N)N)C(=O)NC3CCCC3)c2c1 [Compound 8] |  |  |  |  |  | <15 µg/mL |  |  |  |  |  |  |  |  |
| CC(=O)NC[C@H]1CN(c2ccc(N3CCOCC3)c(F)c2)C(=O)O1 [LZD, linezolid] |  |  |  |  |  |  | 2 µg/mL (≈ 5.93 µM) | 1 µg/mL (≈ 2.96 µM) | 1 µg/mL (≈ 2.96 µM) | 2 µg/mL (≈ 5.93 µM) | 0.5 µg/mL (≈ 1.48 µM) | 0.5 µg/mL (≈ 1.48 µM) |  |  |
| Cc1onc(-c2ccccc2)c1C(=O)N[C@@H]1C(=O)N2[C@@H]1SC(C)(C)[C@@H]2C(=O)O [OXA, oxacillin] |  |  |  |  |  |  | 1 µg/mL (≈ 2.49 µM) | 1 µg/mL (≈ 2.49 µM) | 8 µg/mL (≈ 19.9 µM) | 16 µg/mL (≈ 39.9 µM) | >256 µg/mL | >256 µg/mL |  |  |
| CO[C@H]1/C=C/O[C@@]2(C)Oc3c(C)c(O)c4c(O)c(c(/C=N/N5CCN(C)CC5)c(O)c4c3C2=O)NC(=O)/C(C)=C\C=C\[C@H](C)[C@H](O)[C@@H](C)[C@@H](O)[C@@H](C)[C@H](OC(C)=O)[C@@H]1C [RIF, rifampicin] |  |  |  |  |  |  | <0.016 µg/mL | 0.016 µg/mL (≈ 0.0194 µM) | <0.016 µg/mL | 0.016 µg/mL (≈ 0.0194 µM) | 0.016 µg/mL (≈ 0.0194 µM) | <0.016 µg/mL |  |  |
| CN(C)[C@@H]1C(=O)C(C(N)=O)=C(O)[C@@]2(O)C(=O)C3=C(O)c4c(O)cccc4[C@@](C)(O)[C@H]3C[C@@H]12 [TET, tetracycline] |  |  |  |  |  |  | 0.5 µg/mL (≈ 1.13 µM) | 0.5 µg/mL (≈ 1.13 µM) | 0.5 µg/mL (≈ 1.13 µM) | 2 µg/mL (≈ 4.5 µM) | 0.5 µg/mL (≈ 1.13 µM) | 1 µg/mL (≈ 2.25 µM) | a significant part of the cells are still green indicating live bacteria with intact cell membrane |  |
| CN[C@H](CC(C)C)C(=O)N[C@H]1C(=O)N[C@@H](CC(N)=O)C(=O)N[C@H]2C(=O)N[C@H]3C(=O)N[C@H](C(=O)N[C@H](C(=O)O)c4cc(O)cc(O)c4-c4cc3ccc4O)[C@H](O)c3ccc(c(Cl)c3)Oc3cc2cc(c3O[C@@H]2O[C@H](CO)[C@@H](O)[C@H](O)[C@H]2O[C@H]2C[C@](C)(N)[C@H](O)[C@H](C)O2)Oc2ccc(cc2Cl)[C@H]1O [VAN, vancomycin] |  |  |  |  |  |  | 2 µg/mL (≈ 1.38 µM) | 2 µg/mL (≈ 1.38 µM) | 4 µg/mL (≈ 2.76 µM) | 2 µg/mL (≈ 1.38 µM) | 2 µg/mL (≈ 1.38 µM) | 4 µg/mL (≈ 2.76 µM) |  | predominantly green cells (live organisms) |
| gentamicin |  |  |  |  |  |  | 1 µg/mL | 0.5 µg/mL | 8 µg/mL | 256 µg/mL | 64 µg/mL | 64 µg/mL |  |  |
